The values that follow come from US11964960B2 (Cornell University, priority 2018, dated 2024).

SMILES strings stand for the structures.

T1 sequence (O95136 whole entry, species assumed): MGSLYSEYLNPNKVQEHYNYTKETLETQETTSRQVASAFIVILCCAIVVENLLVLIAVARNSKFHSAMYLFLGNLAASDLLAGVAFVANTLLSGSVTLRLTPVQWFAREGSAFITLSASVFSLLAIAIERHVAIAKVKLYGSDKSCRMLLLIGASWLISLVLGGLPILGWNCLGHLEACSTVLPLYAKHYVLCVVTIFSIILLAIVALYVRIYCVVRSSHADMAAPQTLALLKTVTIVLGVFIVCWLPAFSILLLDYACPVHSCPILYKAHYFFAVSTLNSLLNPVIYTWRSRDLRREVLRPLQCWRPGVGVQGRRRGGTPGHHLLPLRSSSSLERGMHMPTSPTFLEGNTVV

One assay concerns the target T1, S1P2 (Homo sapiens, UniProt O95136).
T1 construct: Flag; expressed in transfected cells; host or cells: Chinese hamster ovary (CHO) cells, doxycycline-inducible (CHO-S1P2-FL / CHO-S1PR2 FL)
Nature of the assay: GLISA RhoA activation - antagonist assay. It counts as cell-based. Particulars: 1 μM compound, CHO-S1P2-FL cells. The protocol: GLISA RhoA Activation—Antagonist Assay
GLISA assays were performed using RhoA (BK124) activation kit purchased from Cytoskeleton Inc., Denver, CO Doxycycline-inducible Flag-tag S1P2 expressing Chinese hamster ovary (CHO) cells (CHO-S1P2-FL) were seeded in a 6-well plate, 1.5×10^5 cells per well. Cells were stimulated with […] of Doxycycline to induce S1P2 expression in serum free IMDM media with 0.1% BSA/PBS. Following day, cells were stimulated with the compounds described herein (1 nM-10 μM) or 1 μM JTE-013 for 1 hour at 37° C. Following compound incubation, cells were washed with PBS×3 and induced with 100 nM […] for 5 min. […] Protein concentration was examined using GLISA—Precision Red Advanced Protein assay reagent as described in assay manual. Lysates were immobilized on GTP-bound capture plate and GLISA assay was performed based on manufacture recommendations as reported previously.
In the case of `Cc1cc(C(=O)Cn2cc(I)ccc2=O)c(C)n1Cc1ccccc1` [Compound 2, 1-(2-(1-benzyl-2,5-dimethyl-1H-pyrrol-3-yl)-2-oxoethyl)-5-iodopyridin-2(1H)-one], at 1 µM the inhibition was 57%.

Take `Cc1cc(C(=O)C(C)n2cc(Br)ccc2=O)c(C)n1Cc1ccccc1` (stereo not drawn) [Compound 4, 1-(1-(1-benzyl-2,5-dimethyl-1H-pyrrol-3-yl)-1-oxopropan-2-yl)-5-bromopyridin-2(1H)-one]: the inhibition (as a rule, the share of the control response that was lost under treatment) at 1 µM stood at 86%.

`Cc1nc(Cn2c(C)cc(C(=O)C(C)n3cc(Br)ccc3=O)c2C)no1` (stereo not drawn) [Compound 5, 5-bromo-1-(1-(2,5-dimethyl-1-((5-methyl-1,2,4-oxadiazol-3-yl)methyl)-1H-pyrrol-3-yl)-1-oxopropan-2-yl)pyridin-2(1H)-one] came in with an inhibition at 1 µM of 48%.

For the molecule `Cc1noc(Cn2c(C)cc(C(=O)C(C)n3cc(Br)ccc3=O)c2C)n1` (stereo not drawn) [Compound 6, 5-bromo-1-(1-(2,5-dimethyl-1-((3-methyl-1,2,4-oxadiazol-5-yl)methyl)-1H-pyrrol-3-yl)-1-oxopropan-2-yl)pyridin-2(1H)-one], 1 µM produced 29% inhibition.

Regarding `Cc1cc(C(=O)C(C)n2cc(Br)ccc2=O)c(C)n1Cc1ncccn1` (stereo not drawn) [Compound 7, 5-bromo-1-(1-(2,5-dimethyl-1-(pyrimidin-2-ylmethyl)-1H-pyrrol-3-yl)-1-oxopropan-2-yl)pyridin-2(1H)-one], testing at 1 µM gave an inhibition of 58%.

Molecule `Cc1cc(C(=O)C(C)n2cc(Br)ccc2=O)c(C)n1Cc1cnn(C)c1` (stereo not drawn) [Compound 8, 5-bromo-1-(1-(2,5-dimethyl-1-((1-methyl-1H-pyrazol-4-yl)methyl)-1H-pyrrol-3-yl)-1-oxopropan-2-yl)pyridin-2(1H)-one] returned an inhibition at 1 µM of 20%.

`Cc1cc(Cn2c(C)cc(C(=O)C(C)n3cc(Br)ccc3=O)c2C)no1` (stereo not drawn) [Compound 9, 5-bromo-1-(1-(2,5-dimethyl-1-((5-methylisoxazol-3-yl)methyl)-1H-pyrrol-3-yl)-1-oxopropan-2-yl)pyridin-2(1H)-one] had an inhibition at 1 µM of 32%.

As for `Cc1cc(C(=O)C(C)n2cc(Br)ccc2=O)c(C)n1CC1CCOCC1` (stereo not drawn) [Compound 10, 5-bromo-1-(1-(2,5-dimethyl-1-((tetrahydro-2H-pyran-4-yl)methyl)-1H-pyrrol-3-yl)-1-oxopropan-2-yl)pyridin-2(1H)-one], the inhibition at 1 µM was found to be 39%.

Take `Cc1cc(C(=O)C(C)n2cc(Br)ccc2=O)c(C)n1CC1CCCOC1` (stereo not drawn) [Compound 11, 5-bromo-1-(1-(2,5-dimethyl-1-((tetrahydro-2H-pyran-3-yl)methyl)-1H-pyrrol-3-yl)-1-oxopropan-2-yl)pyridin-2(1H)-one]: the inhibition at 1 µM was 30%.

`Cc1cc(C(=O)C(C)n2cc(Br)ccc2=O)c(C)n1Cc1ccn(C)n1` (stereo not drawn) [Compound 12, 5-bromo-1-(1-(2,5-dimethyl-1-((1-methyl-1H-pyrazol-3-yl)methyl)-1H-pyrrol-3-yl)-1-oxopropan-2-yl)pyridin-2(1H)-one] registered an inhibition at 1 µM of 41%.

In turn, `Cc1cc(C(=O)C(C)n2cc(Br)ccc2=O)c(C)n1Cc1ccc(S(C)(=O)=O)cc1` (stereo not drawn) [Compound 13, 5-bromo-1-(1-(2,5-dimethyl-1-(4-(methylsulfonyl)benzyl)-1H-pyrrol-3-yl)-1-oxopropan-2-yl)pyridin-2(1H)-one] gave an inhibition at 1 µM of 29%.

Take `Cc1cc(C(=O)C(C)n2cc(Br)ccc2=O)c(C)n1Cc1cccc(S(C)(=O)=O)c1` (stereo not drawn) [Compound 14, 5-bromo-1-(1-(2,5-dimethyl-1-(3-(methylsulfonyl)benzyl)-1H-1-pyrrol-3-yl)-1-oxopropan-2-yl)pyridin-2(1H)-one]: the inhibition at 1 µM worked out at 35%.

For the molecule `Cc1cc(C(=O)C(C)n2cc(Br)ccc2=O)c(C)n1Cc1cccc(C#N)c1` (stereo not drawn) [Compound 15, 3-((3-(2-(5-bromo-2-oxopyridin-1(2H)-yl)propanoyl)-2,5-dimethyl-1H-pyrrol-1-yl)methyl)benzonitrile], testing at 1 µM gave an inhibition of 70%.

The same assay, now with this note: CHO-S1P2-FL cells, 1 hour compound incubation, then for 5 min.
For `Cc1cc(C(=O)Cn2cc(I)ccc2=O)c(C)n1Cc1ccccc1` [Compound 2, 1-(2-(1-benzyl-2,5-dimethyl-1H-pyrrol-3-yl)-2-oxoethyl)-5-iodopyridin-2(1H)-one], half-maximal inhibition (IC50) required 1470 nM.

As to `Cc1cc(C(=O)C(C)n2cc(Br)ccc2=O)c(C)n1Cc1ccccc1` (stereo not drawn) [Compound 4, 1-(1-(1-benzyl-2,5-dimethyl-1H-pyrrol-3-yl)-1-oxopropan-2-yl)-5-bromopyridin-2(1H)-one], the IC50 (as a rule, the midpoint of a concentration-inhibition curve) stood at 26 nM.
